Details: pH 7
Procedure: In the present invention, the octanol/water partition coefficient is obtained as follows. After the chemical is added into a flask containing octanol and an aqueous buffer at pH 7, the mixture is shaken. Based on the chemical concentration in each phase, the octanol/water partition coefficient is calculated by the following equation. Octanol/water partition coefficient=Log 10(concentration in octanol phase/concentration in aqueous phase)

octanol/water partition coefficient: −5.0
Compound: O.O.O.O.O.O=P([O-])(O)C(O)(Cc1cccnc1)P(=O)(O)O.O=P([O-])(O)C(O)(Cc1cccnc1)P(=O)(O)O.[Na+].[Na+] [hemipenta hydrate risedronate monosodium]
